Source: ChEMBL document CHEMBL1137129, “Synthesis and structure-activity relationships of novel IKK-beta inhibitors. Part 2: Improvement of in vitro activity” (Bioorg Med Chem Lett, 2004)

Experiments:
[1] = target: T1, Inhibitor of nuclear factor kappa-B kinase subunit beta (Homo sapiens, UniProt O14920); assay: Inhibitory activity against recombinant human I-kappa-B-kinase beta
T1 sequence (O14920 whole entry): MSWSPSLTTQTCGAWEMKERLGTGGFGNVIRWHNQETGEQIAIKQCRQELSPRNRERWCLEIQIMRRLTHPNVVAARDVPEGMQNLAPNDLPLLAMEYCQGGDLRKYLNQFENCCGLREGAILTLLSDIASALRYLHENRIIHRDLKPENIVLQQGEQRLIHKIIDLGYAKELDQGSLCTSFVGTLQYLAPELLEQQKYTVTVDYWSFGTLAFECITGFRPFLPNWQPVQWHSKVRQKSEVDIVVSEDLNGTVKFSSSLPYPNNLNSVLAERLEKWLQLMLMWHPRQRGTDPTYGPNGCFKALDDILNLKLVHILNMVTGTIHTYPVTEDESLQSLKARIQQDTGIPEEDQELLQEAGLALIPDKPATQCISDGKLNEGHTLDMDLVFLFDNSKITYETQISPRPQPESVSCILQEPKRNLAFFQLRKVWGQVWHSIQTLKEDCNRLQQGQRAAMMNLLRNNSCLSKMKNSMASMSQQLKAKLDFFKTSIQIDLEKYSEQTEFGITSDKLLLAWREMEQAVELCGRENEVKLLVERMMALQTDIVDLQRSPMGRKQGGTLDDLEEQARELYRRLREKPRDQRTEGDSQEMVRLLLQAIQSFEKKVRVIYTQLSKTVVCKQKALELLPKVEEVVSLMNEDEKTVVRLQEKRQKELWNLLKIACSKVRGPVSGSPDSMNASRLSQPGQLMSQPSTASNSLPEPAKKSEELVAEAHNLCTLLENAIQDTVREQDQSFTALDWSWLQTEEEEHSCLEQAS

A549 = assay: TNF-alpha-induced RANTES production in A549 cells using ELISA assay; assay type: functional, cell-based; conditions: Homo sapiens
PBMC = assay: Tested for LPS induced TNFalpha production in human PBMC cells; assay type: functional, cell-based
[2] = target: T2, Inhibitor of nuclear factor kappa-B kinase subunit alpha (Homo sapiens, UniProt O15111); assay: Inhibition of I-kappa-B-kinase alpha
T2 sequence (O15111 whole entry): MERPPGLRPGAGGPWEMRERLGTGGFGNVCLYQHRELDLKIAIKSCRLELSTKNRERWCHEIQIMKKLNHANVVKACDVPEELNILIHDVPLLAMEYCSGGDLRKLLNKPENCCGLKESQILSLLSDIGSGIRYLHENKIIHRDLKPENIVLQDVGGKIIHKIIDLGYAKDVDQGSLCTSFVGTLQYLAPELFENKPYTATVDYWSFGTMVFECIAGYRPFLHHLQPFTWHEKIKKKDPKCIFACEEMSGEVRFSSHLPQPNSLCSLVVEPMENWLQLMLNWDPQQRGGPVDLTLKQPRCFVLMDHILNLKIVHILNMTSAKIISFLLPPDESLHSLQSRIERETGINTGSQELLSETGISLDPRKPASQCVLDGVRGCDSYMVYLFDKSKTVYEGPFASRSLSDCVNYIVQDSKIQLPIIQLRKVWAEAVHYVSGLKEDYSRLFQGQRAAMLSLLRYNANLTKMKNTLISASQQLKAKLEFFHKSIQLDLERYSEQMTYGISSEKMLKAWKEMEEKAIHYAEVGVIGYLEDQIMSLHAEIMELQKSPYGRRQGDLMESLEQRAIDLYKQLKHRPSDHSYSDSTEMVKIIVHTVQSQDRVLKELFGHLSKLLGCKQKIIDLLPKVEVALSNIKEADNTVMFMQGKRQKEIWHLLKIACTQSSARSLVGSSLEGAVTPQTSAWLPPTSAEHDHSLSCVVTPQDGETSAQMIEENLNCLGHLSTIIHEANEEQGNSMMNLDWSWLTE

[3] = Inhibition of Mitogen activated protein kinase kinase 4
[4] = Tested for anti-CD3/anti-CD28-induced IL-2 production in Jurkat T-cell; assay type: functional, cell-based; conditions: Homo sapiens

Structure (SMILES) | IC50 [1] [nM] | IC50 (A549) [nM] | IC50 (PBMC) [nM] | IC50 [2] [nM] | IC50 [3] [µM] | IC50 [4] [nM]
CC(N)c1cc(-c2ccccc2O)nc(N)c1C#N (stereo not given) | 150 | 4000 |  |  |  | 
N#Cc1c(C2CCNCC2)cc(-c2ccccc2O)nc1N | 300 | 400 |  |  |  | 
N#Cc1c(-c2cccnc2)cc(-c2ccccc2O)nc1N | 6200 |  |  |  |  | 
N#Cc1c(C(N)CCc2ccccc2)cc(-c2ccccc2O)nc1N (stereo not given) | 730 | 15000 |  |  |  | 
N#Cc1c(C(N)Cc2ccccc2)cc(-c2ccccc2O)nc1N (stereo not given) | 60 | 8000 |  |  |  | 
CC(=O)Nc1nc(-c2ccccc2O)cc(C2CCCNC2)c1C#N (stereo not given) | 330 | 1500 |  |  |  | 
N#Cc1c(N)nc(-c2ccccc2O)c(F)c1C1CCCNC1 (stereo not given) | 230 | 2000 |  |  |  | 
N#Cc1c(C2CCCNC2)cc(-c2ccccc2)nc1N (stereo not given) | > 20000 |  |  |  |  | 
N#Cc1c(CC(N)c2ccccc2)cc(-c2ccccc2O)nc1N (stereo not given) | 110 | 2000 |  |  |  | 
N#Cc1c(C(N)Cc2ccc(F)cc2)cc(-c2ccccc2O)nc1N (stereo not given) | 40 | 5000 |  |  |  | 
CC(C)C(N)c1cc(-c2ccccc2O)nc(N)c1C#N (stereo not given) | 240 | 5000 |  |  |  | 
N#Cc1c(CCN)cc(-c2ccccc2O)nc1N | 70 | 800 |  |  |  | 
CN1CCCC(c2cc(-c3ccccc3O)nc(N)c2C#N)C1 (stereo not given) | 230 | 1000 |  |  |  | 
N#Cc1c(C2CCCNC2)cc(-c2ccccc2O)nc1N (stereo not given) | 25 | 300 | 400 | 450 | > 20 | 600
CC(N)Cc1cc(-c2ccccc2O)nc(N)c1C#N (stereo not given) | 470 | 3000 |  |  |  | 
CCCCC(N)c1cc(-c2ccccc2O)nc(N)c1C#N (stereo not given) | 480 | 15000 |  |  |  | 
N#Cc1c(C2CCCCN2)cc(-c2ccccc2O)nc1N (stereo not given) | 530 | 6000 |  |  |  | 
CNc1nc(-c2ccccc2O)cc(C2CCCNC2)c1C#N (stereo not given) | 6500 | 20 |  |  |  | 
COc1ccc(CC(N)c2cc(-c3ccccc3O)nc(N)c2C#N)cc1 (stereo not given) | 80 | 5000 |  |  |  | 
